Laboratory results from patent US20200129504A1, “COMPOSITIONS OF PLINABULIN AND USE THEREOF” (BeyondSpring Pharmaceuticals, Inc., priority 2017, published 2020).

What was measured:
PDE4 = experiment: Phosphodiesterase bioassay screening, PDE4 assay; type: biochemical, human
Description: (§1) Plinabulin was tested using Phosphodiesterase assays including PDE3, PDE4, and PDE5 assays. The source for the PDE3 and PDE5 assays were human platelets and for PDE4 assay was human U937 cells. The substrate for all three assays was 1.01 µM [.H]cAMP+cAMP. For all three assays, the pre-incubation time was 15 mins, the incubation time was 20 mins, and the pre-incubation and incubation temperature was 25° C. The quantification method involves quantitation of [^3H]Adenosine, and the significant criteria was set for i 50% of max stimulation or inhibition.

[1] = Clinical study of docetaxel plus plinabulin versus docetaxel alone: dexamethasone-related treatment emergent adverse events; type: in vivo, patients
Description: Patients received either docetaxel plus plinabulin (DN) or docetaxel alone (75 mg/m^2) (D) treatment. Two dosing cohorts were investigated: • 1) 30 mg/m^2 dosing cohort: patients were randomized (1:1) to receive either docetaxel plus plinabulin at 30 mg/m^2 (DN 30 mg/m^2 arm) or docetaxel alone (D arm), • 2) 20 mg/m^2 dosing cohort: patients were randomized (2:1) to receive either docetaxel plus plinabulin at 20 mg/m^2 (DN 20 mg/m^2 arm) or docetaxel (D arm) alone.
Patients received therapy on Day 1 and Day 8 in 3-week cycles. Therapy on Day 1 consisted of 75 mg/m^2 docetaxel administered via intravenous infusion (IV) over 1 hour, followed 2 hours later (from the time the docetaxel infusion began) by placebo (Arm D) or 30 mg/m^2 or 20 mg/m^2 plinabulin (Arm DN) administered via intravenous infusion (IV) over 30 minutes. […]
Treatment Phase: Safety assessments (including a complete physical examination) were performed prior to study drug infusion. […] Additionally, the following were evaluated: CBC with differential/platelets and clinical chemistry were performed up to 72 hours prior to Day 1 of each cycle; an additional assessment occurred in Cycle 1/Day 15; Vital signs (heart rate, respiratory rate, blood pressure and temperature) were taken on the days of infusion immediately before and after each study drug infusion and at 30 and 60 minutes following last infusion on the first cycle. […]

PDE3 = target: T1, PDE3 (Homo sapiens, UniProt Q14432); experiment: Phosphodiesterase bioassay screening, PDE3 assay; type: biochemical; conditions: Plinabulin concentration 10 μm; n 2; source human platelets; [3H]cAMP+cAMP substrate; 25° C.
T1 construct: The source for the PDE3 and PDE5 assays were human platelets; from tissue; host or cells: human platelets
Description: as §1

PDE5 = target: T2, PDE5 (Homo sapiens, UniProt O76074); experiment: Phosphodiesterase bioassay screening, PDE5 assay; type: biochemical; conditions: Plinabulin concentration 10 μm; n 2; source human platelets; [3H]cAMP+cAMP substrate; 25° C.
T2 construct: The source for the PDE3 and PDE5 assays were human platelets; from tissue; host or cells: human platelets
Description: as §1

T1 sequence (Q14432 whole entry): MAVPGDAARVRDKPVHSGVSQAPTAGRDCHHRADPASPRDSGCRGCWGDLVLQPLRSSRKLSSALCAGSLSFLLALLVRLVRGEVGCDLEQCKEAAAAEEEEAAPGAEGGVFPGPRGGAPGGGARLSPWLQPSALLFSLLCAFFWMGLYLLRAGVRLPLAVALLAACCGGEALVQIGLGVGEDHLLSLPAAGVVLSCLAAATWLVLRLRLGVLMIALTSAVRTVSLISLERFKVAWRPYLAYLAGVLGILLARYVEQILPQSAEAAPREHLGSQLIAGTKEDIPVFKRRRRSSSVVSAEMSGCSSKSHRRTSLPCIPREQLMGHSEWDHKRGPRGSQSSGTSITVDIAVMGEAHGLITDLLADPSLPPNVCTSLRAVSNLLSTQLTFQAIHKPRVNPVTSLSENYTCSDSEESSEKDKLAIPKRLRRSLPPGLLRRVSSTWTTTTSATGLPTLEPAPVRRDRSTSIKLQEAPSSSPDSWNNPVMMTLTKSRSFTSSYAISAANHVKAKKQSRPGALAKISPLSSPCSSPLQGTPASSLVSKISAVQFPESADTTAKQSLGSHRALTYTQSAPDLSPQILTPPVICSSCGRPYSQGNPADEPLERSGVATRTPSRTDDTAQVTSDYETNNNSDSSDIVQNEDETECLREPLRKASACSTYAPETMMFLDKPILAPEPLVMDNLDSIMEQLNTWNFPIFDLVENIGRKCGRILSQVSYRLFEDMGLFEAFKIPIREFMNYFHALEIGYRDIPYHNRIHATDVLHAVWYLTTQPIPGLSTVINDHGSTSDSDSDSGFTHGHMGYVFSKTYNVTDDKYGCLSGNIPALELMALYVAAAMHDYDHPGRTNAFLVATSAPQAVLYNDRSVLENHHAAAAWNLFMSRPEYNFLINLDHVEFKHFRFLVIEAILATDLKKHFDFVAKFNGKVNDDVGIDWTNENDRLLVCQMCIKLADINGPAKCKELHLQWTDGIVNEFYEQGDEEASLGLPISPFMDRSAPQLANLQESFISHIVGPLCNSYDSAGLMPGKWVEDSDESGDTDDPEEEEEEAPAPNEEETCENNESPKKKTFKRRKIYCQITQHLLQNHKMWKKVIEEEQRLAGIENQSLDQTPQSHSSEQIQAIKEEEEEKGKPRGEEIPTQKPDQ

CC(C)(C)c1[nH]cnc1/C=c1\[nH]c(=O)/c(=C/c2ccccc2)[nH]c1=O [Plinabulin, (3Z,6Z)-3-Benzylidene-6-{[5-(2-methyl-2-propanyl)-1H-imidazol-4-yl]methylene}-2,5-piperazinedione]
% of inhibition (PDE4; Plinabulin concentration 10 μm, n 2, source human U937 cells, [3H]cAMP+cAMP substrate, 25° C.): 77% | inhibition activity against PDE4 compared with PDE3 and PDE5 (PDE4; from Table 1, 10 μm): better inhibition activity against PDE4 | steroid related adverse events versus patients receiving no plinabulin ([1]; 30 mg/m^2 of plinabulin, p=0.026): statistically more significant | steroid (dexamethasone)-related adverse events, effect of plinabulin dose (FIG. 1) ([1]; plinabulin 20 and 30 mg/m^2 added to docetaxel): dose-dependent increase | % of inhibition (PDE3): 7% | % of inhibition (PDE5): 25%
